Converted amounts (≈) assume the structure as drawn. Where a SMILES comes first, the peptide text is derived from it. Bridges are numbered along the chain shown (N, C = ends). [ ]: non-standard residue; d: D form. The star is where a group is joined. ξ: configuration not given here. Hexanoyl(4ξ-Me) = CCC(C)CCC(=O)*; dOrn = NCCC[C@@H](N)C(=O)O; Orn = NCCC[C@H](N)C(=O)O
Columns and labels:
A. baumannii BV94 = format: cell-based; conditions: BV94, 18 h
Procedure: (§1) VIII. Antimicrobial testing
(§2) Table S2. Minimum inhibitory concentrations (MICs) determined against panel of previously characterized colistin-resistant A. baumannii clinical isolates5
(§3) Strain Relacidine A (3a) Relacidine B (4a) Relacidamide (5) Colistin […]
(§4) aMIC values given in µg/ml.
(§5) All minimum inhibitory concentrations were determined according to Clinical and Standards Laboratory Institute (CLSI) guidelines. Blood agar plates were inoculated from glycerol stocks of the different A. baumannii strains used and then incubated for 16 h at 37 °C . Individually grown colonies were subsequently used to inoculate 5 mL aliquots of TSB that were then incubated at 37 °C. In parallel, the lipopeptide antibiotics DMSO stocks to be assessed were serially diluted with cation-adjusted MHB in polypropylene 96-well plates (50 µL in each well). Colistin sulfate stocks were dissolved in water before being diluted with cation-adjusted MHB. The A. baumannii inoculated TSB aliquots were incubated until an OD600 of around 0.5 was reached. The bacterial suspensions were then diluted with cation-adjusted MHB (2 x 10^5 CFU mL-1) and added to the microplates containing the test compounds (50 µL to each well). The well-plates were sealed with an adhesive membrane and after 18 h of incubation at 37 °C visually inspected for bacterial growth. MIC values reported are based on three technical replicates and defined as the lowest concentration of the compound that prevented visible

A. baumannii NCTC 13304 = format: cell-based; conditions: NCTC 13304, 18 h
Procedure: as §1, §2, §3, §4, §5

A. baumannii LAC-4 = format: cell-based; conditions: LAC-4, 18 h
Procedure: as §1, §2, §3, §4, §5

A. baumannii NCTC 13420 = format: cell-based; conditions: NCTC 13420, 18 h
Procedure: as §1, §2, §3, §4, §5

A. baumannii BV95 = format: cell-based; conditions: BV95, 18 h
Procedure: as §1, §2, §3, §4, §5

A. baumannii BV173 = format: cell-based; conditions: BV173, 18 h
Procedure: as §1, §2, §3, §4, §5

A. baumannii ATCC 17978 = format: cell-based; conditions: ATCC 17978, 18 h
Procedure: as §1, §2, §3, §4, §5

A. baumannii HUMC1 = format: cell-based; conditions: HUMC1, 18 h
Procedure: as §1, §2, §3, §4, §5

A. baumannii BV172 = format: cell-based; conditions: BV172, 18 h
Procedure: as §1, §2, §3, §4, §5

E. coli ATCC 25922 = format: cell-based; conditions: ATCC 25922, 18 h
Procedure: (§6) The antibacterial activities of relacidine A (3a) and B (4a), along with diastereomers 3b and 4b–d and relacidamide (5), were assessed using a standard microbroth dilution assay to establish minimum inhibitory concentration (MIC) values against a panel of Gram-negative bacteria (Table 1). The MIC values measured for synthetic relacidine A (3a) and B (4a) agree well with those previously published.[9] […] Relacidine A (3a) and B (4a), as well as relacidamide (5), were further tested against a panel of colistin-resistant A. baumannii clinical isolates, which confirmed their ability to prevent the growth of colistin-resistant isolates (Supplemental Table S2). […] Also of interest was the finding that while relacidine B (4a) induced <1% hemolysis, a substitution of either the L-Ala or L-Ser to D-Ala or D-Ser increased hemolytic activity to 8–12%. […] The greater hydrolytic stability of relacidine B would appear to be attributable to the increased steric bulk of the Ala side chain next to the ester linkage (compared with the methylene of Gly in relacidine A), which may hinder the nucleophilic attack of water at the ester carbonyl.
(§7) Colistin sulfate was purchased from Activate Scientific. Kanamycin monosulfate was purchased from MP Biomedicals. E. coli ATCC 25922, S. aureus USA300 (ATCC BAA1717), and K. pneumoniae ATCC 13883 belong to the American Type Culture Collection (ATCC). P. aeruginosa PAO1 was kindly provided by L.H.C. Quarles Van Ufford of Utrecht University, Utrecht, The Netherlands. E. coli ATCC 25922 MCR-1 was transfected in-house using the pGDP2-MCR1 plasmid kindly provided by Yong-Xin Li of The University of Hong Kong, Hong Kong, China. Sheep blood agar plates (ref. PB5039A) were purchased from Thermo Scientific. Tryptic soy broth (ref. 02-200-500) was purchased from Scharlab. Mueller-Hinton broth (ref. X927.1) was purchased from Carl Roth. Polypropylene 96-wells plates (ref. 3879) were purchased from Corning.
(§8) MICs were determined according to Clinical and Standards Laboratory Institute (CLSI) guidelines. Blood agar plates were inoculated with glycerol stocks of E. coli ATCC 25922, K. pneumoniae ATCC 13883, P. aeruginosa PAO1, and S. aureus USA300. The inoculated agar plates were then incubated for 16 h at 37 °C. Individually grown colonies were subsequently used to inoculate 5 mL aliquots of tryptic soy broth (TSB) that were then incubated at 37 °C with shaking at 220 rpm. E. coli 25922 MCR-1 glycerol stock was used to inoculate 5 mL of TSB supplemented with kanamycin that was then incubated for 16 h at 37 °C with shaking at 220 rpm. The next day, the culture was diluted 100-fold in TSB supplemented with kanamycin and incubated at 37 °C with shaking at 220 rpm. In parallel, the lipopeptide antibiotic DMSO stocks to be assessed were serially diluted with Mueller Hinton broth (MHB) in polypropylene 96-well plates (50 μL in each well). Colistin sulfate stocks were dissolved in water before being diluted with MHB. Aliquots of the inoculated TSB were incubated until an OD600 of around 0.5 was reached. The bacterial suspensions were then diluted with MHB (2 × 10^5 cfu mL^–1) and added to the microplates containing the test compounds (50 μL to each well). The well plates were sealed with an adhesive membrane, and after 18 h of incubation at 37 °C with shaking at 600 rpm, the wells were visually inspected for bacterial growth. MIC values reported are based on three technical replicates and defined as the lowest concentration of the compound that prevented visible growth of bacteria.

K. pneumoniae ATCC 13883 = format: cell-based; conditions: ATCC 13883, 18 h
Procedure: as §6, §7, §8

E. coli ATCC 25922 mcr-1 = format: cell-based; conditions: CLSI microbroth dilution, Mueller Hinton broth, 18 h at 37 °C, visual read-out, three technical replicates; mcr-1 colistin resistance plasmid
Procedure: as §6, §7, §8

S. aureus USA300 = format: cell-based; conditions: USA300, 18 h
Procedure: as §6, §7, §8

P. aeruginosa PAO1 = format: cell-based; conditions: PAO1, 18 h
Procedure: as §6, §7, §8

[1] = human serum (obtained from Sigma Aldrich, product number: H4522); conditions: 37 °C, up to 24 h

Compound	MIC A. baumannii BV94 (A. baumannii BV94) [µg/mL]	MIC A. baumannii NCTC 13304 (A. baumannii NCTC 13304) [µg/mL]	MIC A. baumannii LAC-4 (A. baumannii LAC-4) [µg/mL]	MIC A. baumannii NCTC 13420 (A. baumannii NCTC 13420) [µg/mL]	MIC A. baumannii BV95 (A. baumannii BV95) [µg/mL]	MIC A. baumannii BV173 (A. baumannii BV173) [µg/mL]	MIC A. baumannii ATCC 17978 (A. baumannii ATCC 17978) [µg/mL]	MIC A. baumannii HUMC1 (A. baumannii HUMC1) [µg/mL]	MIC A. baumannii BV172 (A. baumannii BV172) [µg/mL]	MIC E. coli ATCC 25922 (E. coli ATCC 25922) [µg/mL]	MIC K. pneumoniae ATCC 13883 (K. pneumoniae ATCC 13883) [µg/mL]	MIC E. coli ATCC 25922 mcr-1 (E. coli ATCC 25922 mcr-1) [µg/mL]	MIC S. aureus USA300 (S. aureus USA300) [µg/mL]	MIC P. aeruginosa PAO1 (P. aeruginosa PAO1) [µg/mL]	not cleaved [1]
CCC(C)CCC(=O)N[C@H](CO)C(=O)N[C@H](Cc1ccc(O)cc1)C(=O)N[C@H](Cc1c[nH]c2ccccc12)C(=O)N[C@H](CCCN)C(=O)N[C@@H](CCCN)C(=O)NCC(=O)N[C@H](CCCN)C(=O)N[C@@H](Cc1c[nH]c2ccccc12)C(=O)N[C@@H]1C(=O)N[C@@H]([C@@H](C)CC)C(=O)NCC(=O)N[C@@H](CO)C(=O)NCC(=O)O[C@@H]1C (stereo partly shown) [3a, Relacidine A] ({Hexanoyl(4ξ-Me)}-[dS][dY][dW][dOrn][Orn]G[dOrn]WTIGSG; ester 9-C)	8 (≈ 5.16 µM)	4 (≈ 2.58 µM)	4 (≈ 2.58 µM)	8 (≈ 5.16 µM)	8 (≈ 5.16 µM)	8 (≈ 5.16 µM)	8 (≈ 5.16 µM)	16 (≈ 10.3 µM)	16 (≈ 10.3 µM)	2 (≈ 1.29 µM)	4 (≈ 2.58 µM)	2 to 4	>32	4 (≈ 2.58 µM)	
CCC(C)CCC(=O)N[C@H](CO)C(=O)N[C@H](Cc1ccc(O)cc1)C(=O)N[C@H](Cc1c[nH]c2ccccc12)C(=O)N[C@H](CCCN)C(=O)N[C@@H](CCCN)C(=O)NCC(=O)N[C@H](CCCN)C(=O)N[C@@H](Cc1c[nH]c2ccccc12)C(=O)N[C@@H]1C(=O)N[C@@H]([C@@H](C)CC)C(=O)NCC(=O)N[C@H](CO)C(=O)NCC(=O)O[C@@H]1C (stereo partly drawn) [3b, D-Ser12-Relacidine A] ({Hexanoyl(4ξ-Me)}-[dS][dY][dW][dOrn][Orn]G[dOrn]WTIG[dS]G; ester 9-C)										2 to 4	4 (≈ 2.58 µM)	4 (≈ 2.58 µM)	>32	2 (≈ 1.29 µM)	
CCC(C)CCC(=O)N[C@H](CO)C(=O)N[C@H](Cc1ccc(O)cc1)C(=O)N[C@H](Cc1c[nH]c2ccccc12)C(=O)N[C@H](CCCN)C(=O)N[C@@H](CCCN)C(=O)NCC(=O)N[C@H](CCCN)C(=O)N[C@@H](Cc1c[nH]c2ccccc12)C(=O)N[C@@H]1C(=O)N[C@@H]([C@@H](C)CC)C(=O)NCC(=O)N[C@@H](CO)C(=O)N[C@@H](C)C(=O)O[C@@H]1C (stereo partly shown) [4a, Relacidine B] ({Hexanoyl(4ξ-Me)}-[dS][dY][dW][dOrn][Orn]G[dOrn]WTIGSA; ester 9-C)	16 (≈ 10.2 µM)	4 (≈ 2.56 µM)	8 (≈ 5.12 µM)	16 (≈ 10.2 µM)	8 (≈ 5.12 µM)	16 (≈ 10.2 µM)	4 (≈ 2.56 µM)	8 (≈ 5.12 µM)	16 (≈ 10.2 µM)	1 (≈ 0.639 µM)	4 (≈ 2.56 µM)	2 (≈ 1.28 µM)	>32	4 (≈ 2.56 µM)	
CCC(C)CCC(=O)N[C@H](CO)C(=O)N[C@H](Cc1ccc(O)cc1)C(=O)N[C@H](Cc1c[nH]c2ccccc12)C(=O)N[C@H](CCCN)C(=O)N[C@@H](CCCN)C(=O)NCC(=O)N[C@H](CCCN)C(=O)N[C@@H](Cc1c[nH]c2ccccc12)C(=O)N[C@@H]1C(=O)N[C@@H]([C@@H](C)CC)C(=O)NCC(=O)N[C@@H](CO)C(=O)N[C@H](C)C(=O)O[C@@H]1C (stereo partly drawn) [4b, D-Ala13, L-Ser12-Relacidine B] ({Hexanoyl(4ξ-Me)}-[dS][dY][dW][dOrn][Orn]G[dOrn]WTIGS[dA]; ester 9-C)										2 (≈ 1.28 µM)	4 (≈ 2.56 µM)	2 to 4	>32	4 (≈ 2.56 µM)	
CCC(C)CCC(=O)N[C@H](CO)C(=O)N[C@H](Cc1ccc(O)cc1)C(=O)N[C@H](Cc1c[nH]c2ccccc12)C(=O)N[C@H](CCCN)C(=O)N[C@@H](CCCN)C(=O)NCC(=O)N[C@H](CCCN)C(=O)N[C@@H](Cc1c[nH]c2ccccc12)C(=O)N[C@@H]1C(=O)N[C@@H]([C@@H](C)CC)C(=O)NCC(=O)N[C@H](CO)C(=O)N[C@@H](C)C(=O)O[C@@H]1C (stereo partly drawn) [4c, L-Ala13, D-Ser12-Relacdine B] ({Hexanoyl(4ξ-Me)}-[dS][dY][dW][dOrn][Orn]G[dOrn]WTIG[dS]A; ester 9-C)										1 to 2	2 to 4	1 to 2	>32	4 (≈ 2.56 µM)	
CCC(C)CCC(=O)N[C@H](CO)C(=O)N[C@H](Cc1ccc(O)cc1)C(=O)N[C@H](Cc1c[nH]c2ccccc12)C(=O)N[C@H](CCCN)C(=O)N[C@@H](CCCN)C(=O)NCC(=O)N[C@H](CCCN)C(=O)N[C@@H](Cc1c[nH]c2ccccc12)C(=O)N[C@@H]1C(=O)N[C@@H]([C@@H](C)CC)C(=O)NCC(=O)N[C@H](CO)C(=O)N[C@H](C)C(=O)O[C@@H]1C (stereo partly drawn) [4d, D-Ala13, D-Ser12-Relacdine B] ({Hexanoyl(4ξ-Me)}-[dS][dY][dW][dOrn][Orn]G[dOrn]WTIG[dS][dA]; ester 9-C)										2 (≈ 1.28 µM)	2 to 4	2 to 4	>32	8 (≈ 5.12 µM)	
D-Ser1 D-Tyr2 D-Trp3 D-Orn4 Orn5 Gly6 D-Orn7 Trp8 Thr9 Ile10 Gly11 Ser12 Ala13 Lipid															highly resistant to degradation in human serum even after 24 h of incubation

From publication PMC10111413 (ACS Infectious Diseases, 2023)
